From patent US8933195B2, “Histone deacetylase inhibitors and synthetic method thereof and use thereof in manufacture of medicaments” (Nanjing Yoko Biomedical R & D Ltd., priority 2011, dated 2015)

What was measured:
HDAC1 = HDAC1 (Homo sapiens, UniProt Q13547); experiment: Measurement of biochemical activities of HDAC (fluorescently-labeled acetylated lysine substrate); details: read-out: IC50 HDAC1
Summary of the method: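 For both HDAC isoforms, fluorescent acetyl-lysine substrate ([…] in reaction) incubated with enzyme and compounds for 30 min at 37; developer then added for 15 min at room temperature. Fluorescence read at excitation 360 nm, emission 460 nm.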

[1] = tested on: DU145 (human prostate cancer cells); experiment: MTT cancer cell growth inhibition; assay type: cell-based; details: DU-145, 72 h
Summary of the method: (§1)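 Cells seeded at 1500 per well in DMEM or RPMI 1640 with 10% FBS, cultured overnight at 37 °C, 5% CO2, then exposed to compound at 10^−5–10^−10 M final (0.1% DMSO) for 72 h. MTT added for 4 h, formazan dissolved in DMSO, absorbance read at 570 nm to give survival rate.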

[2] = tested on: MOLT-4 (human acute lymphoblastic leukemia cells); experiment: MTT cancer cell growth inhibition; assay type: cell-based; details: 72 h
Summary of the method: as §1

Incap = experiment: MTT cancer cell growth inhibition; assay type: cell-based; details: 72 h
[3] = tested on: human colon cancer HCT-116; experiment: Subcutaneously transplanted tumors in nude mice; assay type: in vivo, BALB/cA nude mice; set-up: key to RTV (mean ± SD): RTV = Vt/V0, tumor volume at time t over volume at d0; details: for 1-T/C tumor inhibition rate / TV (mean ± SD) d0 / Weight d0 / RTV (mean ± SD) / TV (mean ± SD) d21: Table 2.1, 20 mg/kg q3d × 3w iv; for 1-T/C tumor inhibition rate: after three weeks; for RTV (mean ± SD) / TV (mean ± SD) d21: d21; for Tumor Volume TV (mean ± SD) d 0 / Tumor Volume TV (mean ± SD) d 3 / Tumor Volume TV (mean ± SD) d 7 / Tumor Volume TV (mean ± SD) d 10 / Tumor Volume TV (mean ± SD) d 14 / Tumor Volume TV (mean ± SD) d 17: Table 2.2; for Tumor Volume TV (mean ± SD) d 0 / Tumor Volume TV (mean ± SD) d 3 / Tumor Volume TV (mean ± SD) d 7 / Tumor Volume TV (mean ± SD) d 10 / Tumor Volume TV (mean ± SD) d 14 / Tumor Volume TV (mean ± SD) d 17 / Weight (mean ± SD) d 0 / Weight (mean ± SD) d 3 / Weight (mean ± SD) d 7 / Weight (mean ± SD) d 10 / Weight (mean ± SD) d 14 / Weight (mean ± SD) d 17 / Weight (mean ± SD) d 21: 20 mg/kg; for Weight (mean ± SD) d 0 / Weight (mean ± SD) d 3 / Weight (mean ± SD) d 7 / Weight (mean ± SD) d 10 / Weight (mean ± SD) d 14 / Weight (mean ± SD) d 17 / Weight (mean ± SD) d 21: Table 2.3
Method: The solvents are isopropanol and anhydrous ethanol (mixed in the volume ratio of 1:1). The test sample is dissolved with solvents and physiological saline in the ratio of 1:1 for use, and the above solvents and physiological saline are dissolved in the ratio of 1:1 as a negative control.
The number of mice in each group: 12 mice in the negative control group, and 6 mice in the administration group.
The cell strains are inoculated to the right axilla subcutaneous layer of the nude mice, with 5×10^6 per mouse. After formed, the transplanted tumors are passed down two generations in the nude mice and then used.
(§2) Tumor tissues in the vigorous growth period are cut into about 1.5 mm^3, and inoculated to the right axilla subcutaneous layer of the nude mice under aseptic conditions. For the subcutaneously transplanted tumors of the nude mice, the diameter of the transplanted tumors is measured by a vernier caliper. The mice are randomly grouped after the tumors grow to 100-200 mm^3. […] The diameter of the transplanted tumors is measured twice per week in the whole experimental process, and meanwhile the weight of the mice is weighed. The calculation formula of tumor volume (TV) is TV=½×a×b^2, where a and b represent length and width, respectively.
(§3) The relative tumor volume (RTV) is calculated according to the measured results, with the following calculation formula: RTV=Vt/V0, where V0 is the tumor volume obtained by measurement during administration in different cages (i.e., d0), Vt is the tumor volume obtained by measurement at each time. […] (Wc−WT)Wc×100%, where Wc is the tumor weight of the control group, and WT is the tumor weight of the treatment group.

[4] = tested on: Human Blood Acute Monocytic Leukemia U937; experiment: Subcutaneously transplanted tumors in nude mice; assay type: in vivo; details: 20 mg/kg
Method: as §2, §3

[5] = tested on: Human Gastric Adenocarcinoma Cell BGC-823; experiment: Subcutaneously transplanted tumors in nude mice; assay type: in vivo; details: 20 mg/kg
Method: as §2, §3

[6] = tested on: Human Lung Caner Cell NCI-H1975; experiment: Subcutaneously transplanted tumors in nude mice; assay type: in vivo; details: 20 mg/kg
Method: as §2, §3

[7] = tested on: Human Lymphoma Cell Ramos; experiment: Subcutaneously transplanted tumors in nude mice; assay type: in vivo; details: 20 mg/kg
Method: as §2, §3

Human Melanoma Cell A875 = experiment: Subcutaneously transplanted tumors in nude mice; assay type: in vivo; details: 20 mg/kg
Method: as §2, §3

Sequence of HDAC1 (Q13547 whole entry, species assumed, canonical isoform): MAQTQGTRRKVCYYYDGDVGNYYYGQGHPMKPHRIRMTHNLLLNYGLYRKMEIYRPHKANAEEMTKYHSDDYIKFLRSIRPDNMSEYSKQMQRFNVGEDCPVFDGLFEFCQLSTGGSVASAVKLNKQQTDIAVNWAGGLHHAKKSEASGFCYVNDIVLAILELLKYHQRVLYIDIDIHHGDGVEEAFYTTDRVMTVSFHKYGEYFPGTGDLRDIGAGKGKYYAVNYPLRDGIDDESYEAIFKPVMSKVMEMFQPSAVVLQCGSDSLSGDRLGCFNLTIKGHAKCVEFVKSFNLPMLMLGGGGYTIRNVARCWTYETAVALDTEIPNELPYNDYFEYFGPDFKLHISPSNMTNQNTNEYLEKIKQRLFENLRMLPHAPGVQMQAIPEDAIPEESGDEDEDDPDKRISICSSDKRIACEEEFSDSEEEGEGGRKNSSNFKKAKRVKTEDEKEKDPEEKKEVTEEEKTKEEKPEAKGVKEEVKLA

IC50 (HDAC1) [µM]	GI50 [1] [nM]	GI50 [2] [nM]	GI50 (Incap) [nM]	Weight d0 [3] [g]	Weight (mean ± SD) d 0 [3] [g]	Weight (mean ± SD) d 3 [3] [g]	Weight (mean ± SD) d 7 [3] [g]	Weight (mean ± SD) d 10 [3] [g]	Weight (mean ± SD) d 14 [3] [g]	Compound	1-T/C tumor inhibition rate [3] [%]	TV (mean ± SD) d0 [3] [mm^3]	RTV (mean ± SD) [3]	TV (mean ± SD) d21 [3] [mm^3]	Tumor Volume TV (mean ± SD) d 0 [3] [mm^3]	Tumor Volume TV (mean ± SD) d 3 [3] [mm^3]	Tumor Volume TV (mean ± SD) d 7 [3] [mm^3]	Tumor Volume TV (mean ± SD) d 10 [3] [mm^3]	Tumor Volume TV (mean ± SD) d 14 [3] [mm^3]	Tumor Volume TV (mean ± SD) d 17 [3] [mm^3]	also measured
< 10	50	1000	1200	16.9	16.9 ± 1.0	16.6 ± 1.8	15.9 ± 1.6	15.5 ± 1.6	14.8 ± 1.8	C/C=C1\NC(=O)c2csc(n2)CNC(=O)C[C@@H](/C=C/CCSC(=O)CCCCCCC)OC(=O)[C@H](C(C)(C)C)NC1=O [Compound 1-6]	74.09	121 ± 28	2.69 ± 1.82	326 ± 221	120 ± 28	129 ± 15	156 ± 23	195 ± 58	249 ± 110	265 ± 122	Weight (mean ± SD) d 17 [3]: 14.2 ± 1.7 g; Weight (mean ± SD) d 21 [3]: 13.1 ± 1.6 g; Tumor Inhibition Rate (1 − T/C) × 100% [4]: 66.37%; Tumor Inhibition Rate (1 − T/C) × 100% [5]: 60.26%; Tumor Inhibition Rate (1 − T/C) × 100% [6]: 59.19%; Tumor Inhibition Rate (1 − T/C) × 100% [7]: 60.94%; Tumor Inhibition Rate (1 − T/C) × 100% (Human Melanoma Cell A875): 66.64%
< 1	360	100	200	16.6	16.6 ± 1.2	16.2 ± 1.4	14.8 ± 1.2	14.5 ± 1.0	13.8 ± 0.9	C/C=C1\NC(=O)c2csc(n2)CNC(=O)C[C@@H](/C=C/CCSC(=O)CCCCCCC)OC(=O)[C@H](C)NC1=O [Compound 1-4]	74.46	116 ± 23	2.65 ± 1.70	308 ± 198	118 ± 23	126 ± 12	157 ± 26	189 ± 52	234 ± 103	262 ± 132	Weight (mean ± SD) d 17 [3]: 13.3 ± 0.9 g; Weight (mean ± SD) d 21 [3]: 13.0 ± 1.0 g
